Experimental data published in patent publication US20020099035A1, “Method for preparing alpha-sulfonyl hydroxamic acid derivatives” (priority 2001, published 2002).
Where a name gives a salt, the structure may show the parent alone.

Key:
TACE = target: T1, TACE (Homo sapiens, UniProt P78536); test: Procedure for measuring TACE inhibition (fluorescent peptidyl substrate); assay type: biochemical
T1 construct: purchased Immunex
Protocol: […] The reaction is initiated by addition of a fluorescent peptidyl substrate (final concentration 100 μM) to each well and then shaking on a shaker for 5 sec.
The reaction is read (excitation 340 nm, emission 420 nm) for 10 min. and the increase in fluorescence over time is plotted as a linear line. The slope of the line is calculated and represents the reaction rate.
The linearity of the reaction rate is confirmed (r^2>0.85). The mean (x±sem) of the control rate is calculated and compared for statistical significance (p<0.05) with drug-treated rates using Dunnett's multiple comparison test. Dose-response relationships can be generate using multiple doses of drug and IC50 values with 95% CI are estimated using linear regression.

[1] = target: T2, MMP1 (human recombinant fibroblast collagenase) (Homo sapiens, UniProt P03956); test: In vitro collagenase assay (fluorogenic peptide substrate); assay type: biochemical; conditions: read-out: MMP1 (1C50)
T2 construct: human recombinant fibroblast collagenase (truncated, mw=18,828, WAR, Radnor)
T2 sequence (P03956 100-269 limits assumed): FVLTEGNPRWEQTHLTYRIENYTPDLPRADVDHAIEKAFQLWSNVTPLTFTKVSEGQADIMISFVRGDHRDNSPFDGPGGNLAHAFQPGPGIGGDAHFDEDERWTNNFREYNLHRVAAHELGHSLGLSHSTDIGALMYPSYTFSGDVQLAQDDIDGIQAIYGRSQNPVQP
Protocol: The assay is based on the cleavage of a peptide substrate ((Dnp-Pro-Cha-Gly-Cyns(Me)-His-Ala-Lys(NMa)-NH2), Peptide International, Inc.) by collagenase releasing the fluorescent NMa group which is quantitated on the fluorometer. Dnp quenches the NMa fluorescence in the intact substrate. The assay is run in HCBC assay buffer (50 mM HEPES, pH 7.0, 5 mM Ca^+2, 0.02% Brij, 0.5% Cysteine), with human recombinant fibroblast collagenase (truncated, mw=18,828, WAR, Radnor). Substrate is dissolved in methanol and stored frozen in 1 mM aliquots. Collagenase is stored frozen in buffer in 25 μM aliquots. For the assay, substrate is dissolved in HCBC buffer to a final concentration of 10 μM and collagenase to a final concentration of 5 nM. Compounds are dissolved in methanol, DMSO, or HCBC. The methanol and DMSO are diluted in HCBC to <1.0%. Compounds are added to the 96 well plate containing enzyme and the reaction is started by the addition of substrate.
The reaction is read (excitation 340 nm, emission 444 nm) for 10 min. and the increase in fluorescence over time is plotted as a linear line. The slope of the line is calculated and represents the reaction rate.
(§1) The linearity of the reaction rate is confirmed (r^2>0.85). The mean (x±sem) of the control rate is calculated and compared for statistical significance (p<0.05) with drug-treated rates using Dunnett's multiple comparison test. […]

[2] = target: T3, MMP9 (human neutrophil gelatinase B) (Homo sapiens, UniProt P14780); test: In vitro gelatinase assay (thiopeptide substrate, DTNB); assay type: biochemical
T3 construct: from tissue; host or cells: human neutrophils
Protocol: The assay is based on the cleavage of the thiopeptide substrate ((Ac-Pro-Leu-Gly(2 mercapto-4 methyl-pentanoyl)-Leu-Gly-OEt), Bachem Bioscience) by the enzyme, gelatinase, releasing the substrate product which reacts calorimetrically with DTNB ((5,5′-dithio-bis(2-nitro-benzoic acid)). The enzyme activity is measured by the rate of the color increase.
The thiopeptide substrate is made up fresh as a 20 mM stock in 100% DMSO and the DTNB is dissolved in 100% DMSO as a 100 mM stock and stored in dark at room temperature. Both the substrate and DTNB are diluted together to 1 mM with substrate buffer (50 mM HEPES pH 7.5, 5 mM CaCl2) before use. The stock of human neutrophil gelatinase B is diluted with assay buffer (50 mM HEPES pH 7.5, 5 mM CaCl2, 0.02% Brij) to a final concentration of 0.15 nM. The assay buffer, enzyme, DTNB/substrate (500 μM final concentration) and vehicle or inhibitor are added to a 96 well plate (total reaction volume of 200 μl ) and the increase in color is monitored spectrophotometrically for 5 minutes at 405 nm on a plate reader.
The increase in OD405 is plotted and the slope of the line is calculated which represents the reaction rate.
as §1

MMP13 = MMP13 (Homo sapiens, UniProt P45452); test: MMP13 inhibition; assay type: biochemical

T3 sequence (P14780 94-707): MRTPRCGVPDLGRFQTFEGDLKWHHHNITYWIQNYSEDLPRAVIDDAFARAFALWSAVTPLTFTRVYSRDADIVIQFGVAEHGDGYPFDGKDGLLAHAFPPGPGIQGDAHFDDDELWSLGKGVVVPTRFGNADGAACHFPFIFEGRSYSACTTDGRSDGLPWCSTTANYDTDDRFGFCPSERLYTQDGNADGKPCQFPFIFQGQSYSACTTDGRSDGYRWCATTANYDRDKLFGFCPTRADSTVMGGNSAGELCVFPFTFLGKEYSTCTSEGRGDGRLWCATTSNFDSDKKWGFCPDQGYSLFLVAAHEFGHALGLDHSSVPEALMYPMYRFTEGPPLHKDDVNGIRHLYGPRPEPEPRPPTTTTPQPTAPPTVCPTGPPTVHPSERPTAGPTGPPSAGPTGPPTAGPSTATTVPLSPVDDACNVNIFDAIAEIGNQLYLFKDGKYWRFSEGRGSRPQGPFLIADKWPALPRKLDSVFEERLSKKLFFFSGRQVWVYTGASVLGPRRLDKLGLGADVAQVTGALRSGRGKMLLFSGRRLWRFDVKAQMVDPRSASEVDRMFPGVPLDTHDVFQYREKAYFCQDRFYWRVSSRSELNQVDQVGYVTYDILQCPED
T1 sequence (P78536 215-824): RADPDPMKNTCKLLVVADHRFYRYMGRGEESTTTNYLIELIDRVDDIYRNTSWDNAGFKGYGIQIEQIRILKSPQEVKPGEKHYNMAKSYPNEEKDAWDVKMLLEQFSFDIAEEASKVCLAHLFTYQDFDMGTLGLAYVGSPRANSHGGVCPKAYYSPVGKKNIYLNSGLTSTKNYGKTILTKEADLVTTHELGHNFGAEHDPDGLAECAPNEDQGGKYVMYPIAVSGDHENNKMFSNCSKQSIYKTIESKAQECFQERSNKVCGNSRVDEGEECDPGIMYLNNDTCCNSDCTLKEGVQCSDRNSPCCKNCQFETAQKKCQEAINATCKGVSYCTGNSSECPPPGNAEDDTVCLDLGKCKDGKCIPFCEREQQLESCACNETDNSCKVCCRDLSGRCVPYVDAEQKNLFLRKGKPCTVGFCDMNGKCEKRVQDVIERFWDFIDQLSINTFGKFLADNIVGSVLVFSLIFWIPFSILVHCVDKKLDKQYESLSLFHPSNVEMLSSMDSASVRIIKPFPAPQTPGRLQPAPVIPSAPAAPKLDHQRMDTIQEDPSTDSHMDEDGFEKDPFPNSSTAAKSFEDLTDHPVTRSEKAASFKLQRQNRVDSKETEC

SMILES | melting point [°C] | inhibition at 10 µM (TACE) [%] | IC50 [1] [nM] | IC50 [2] [nM] | IC50 (MMP13) [nM]
COc1ccc(S(=O)(=O)C2(C(=O)NO)CCCN(Cc3ccccc3)C2)cc1 (centres unmarked) (as salt: hydrochloride) [Example 18, 1-Benzyl-3-(4-methoxybenzenesulfonyl)piperidine-3-carboxylic acid hydroxamide] | 132.9 |  |  |  | 
COc1ccc(S(=O)(=O)C2(C(=O)NO)CCCN(Cc3ccccc3)C2)cc1 (centres unmarked) [Example 18, 1-Benzyl-3-(4-methoxybenzenesulfonyl)piperidine-3-carboxylic acid hydroxamide] |  | 54 | 1300 | 732 | 140
